US11186576B2, “Pyrazolo[1,5-A][1,3,5]triazine and pyrazolo[1,5-A]pyrimidine derivatives as CDK inhibitors” (Aurigene Discovery Technologies Limited, priority 2015, dated 2021)

Target: CDK7/CycH/MNAT1 (Homo sapiens (Human), UniProt P50613)
Assay: Biochemical assay for CDK7 (TR-FRET kinase assay)
Conditions: 60 min pre-incubation, 1 mM ATP; for inhibition at 10 µM / % inhibition @ 10 μM: 10 μM compound; for inhibition at 10 µM: read-out: % inhibition @ 10 μM; for IC50: read-out: IC50
Procedure: The ability of compounds to inhibit CDK7 kinase activity was tested in a TR-FRET assay using 5 nM of CDK7/CycH/MNAT1 obtained from Invitrogen, USA. Test compounds were pre-incubated with the kinase at room temperature for 60 min. After incubation, substrate mix [100 nM Ultra-light MBP (Perkin Elmer, USA) and 1 mM ATP (Sigma)] was added. The above reaction was stopped by the addition of 40 mM EDTA after 60 minutes of kinase reaction. 1 nM Eu-labelled antiphospho-MBP antibody [Perkin Elmer, USA] was added, mixed well and the fluorescence emission at 615 nm and 665 nm [excitation at 340 nm] was measured. The final DMSO concentration in the assay was 1%. For IC50 determination, appropriate concentrations were made by ⅓^rd serial dilutions of 10 mM DMSO stock solution of test compound. All the fluorescence measurements were made in a Victor 3 Multilabel Counter [Perkin Elmer, USA]. The IC50 was determined by fitting the dose response data to sigmoidal curve fitting equation using GraphPad Prism software V5. To identify compounds that inhibit CDK7 irreversibly, time depended inhibition studies were carried by pre-incubating compound with the enzyme at three time points (20, 60 and 180 min) and carrying out assay as described above.

CDK7/CycH/MNAT1, sequence (P50613 whole entry): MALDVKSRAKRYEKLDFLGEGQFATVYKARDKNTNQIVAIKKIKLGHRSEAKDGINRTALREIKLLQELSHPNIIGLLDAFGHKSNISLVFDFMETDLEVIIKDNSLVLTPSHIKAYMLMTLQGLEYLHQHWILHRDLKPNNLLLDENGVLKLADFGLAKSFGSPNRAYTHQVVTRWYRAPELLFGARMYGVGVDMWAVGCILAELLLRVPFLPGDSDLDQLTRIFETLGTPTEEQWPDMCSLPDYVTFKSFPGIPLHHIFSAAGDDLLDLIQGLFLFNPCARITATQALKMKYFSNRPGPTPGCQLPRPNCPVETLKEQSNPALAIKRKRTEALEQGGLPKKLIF
CDK7/CycH/MNAT1, sequence (P51946 whole entry partner): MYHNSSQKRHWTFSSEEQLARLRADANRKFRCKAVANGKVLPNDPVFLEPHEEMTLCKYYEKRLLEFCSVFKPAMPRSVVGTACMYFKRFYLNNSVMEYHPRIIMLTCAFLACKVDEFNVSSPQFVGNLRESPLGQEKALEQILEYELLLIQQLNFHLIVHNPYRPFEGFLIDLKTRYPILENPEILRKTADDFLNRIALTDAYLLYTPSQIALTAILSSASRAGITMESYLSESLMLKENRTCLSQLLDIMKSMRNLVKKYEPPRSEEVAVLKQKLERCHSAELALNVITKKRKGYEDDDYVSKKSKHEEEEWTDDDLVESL
CDK7/CycH/MNAT1, sequence (P51948 whole entry partner): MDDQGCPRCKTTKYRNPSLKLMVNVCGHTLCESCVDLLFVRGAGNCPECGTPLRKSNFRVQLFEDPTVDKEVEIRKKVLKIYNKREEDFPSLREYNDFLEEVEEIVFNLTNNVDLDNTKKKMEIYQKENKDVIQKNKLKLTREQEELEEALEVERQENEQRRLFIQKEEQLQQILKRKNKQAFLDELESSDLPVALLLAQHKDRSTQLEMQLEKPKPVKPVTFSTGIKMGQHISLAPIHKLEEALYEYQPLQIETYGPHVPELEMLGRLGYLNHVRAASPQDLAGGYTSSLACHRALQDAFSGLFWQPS

Question: Which results are given for `C=CC(=O)N[C@H]1CC[C@@H](C(=O)Nc2cccc(CNc3nc(NC4CCCC(O)C4)nc4c(C(C)C)cnn34)c2)CC1` (single isomer, unassigned) [Compound 10, 4-acrylamido-N-(3-(((2-((3-hydroxycyclohexyl)amino)-8-isopropylpyrazolo[1,5-a][1,3,5]triazin-4-yl)amino)methyl)phenyl)cyclohexane-1-carboxamide]?
Answer: inhibition at 10 µM: 89%; IC50: 300 to 1000 nM

Question: For `C=CC(=O)N[C@H]1CC[C@@H](C(=O)Nc2cccc(CNc3nc(NC4CCCC(O)C4)nc4c(C(C)C)cnn34)c2)CC1` (single isomer, unassigned) [Compound 11, 4-acrylamido-N-(3-(((2-((3-hydroxycyclohexyl)amino)-8-isopropylpyrazolo[1,5-a][1,3,5]triazin-4-yl)amino)methyl)phenyl)cyclohexane-1-carboxamide], which “% inhibition @ 10 μM” value is on record?
Answer: 89%

Question: And the IC50?
Answer: 300 to 1000 nM

Question: Which results are given for `C=CC(=O)N1CCC(C(=O)Nc2cccc(CNc3nc(NC4CCCC(O)C4)nc4c(C(C)C)cnn34)c2)C1` (single isomer, unassigned) [Compound 12, 1-acryloyl-N-(3-(((2-((3-hydroxycyclohexyl)amino)-8-isopropylpyrazolo[1,5-a][1,3,5]triazin-4-yl)amino)methyl)phenyl)pyrrolidine-3-carboxamide]?
Answer: inhibition at 10 µM: 92%; IC50: 300 to 1000 nM

Question: Which results are given for `C=CC(=O)N[C@H]1CC[C@@H](C(=O)Nc2cccc(CNc3nc(OC4CCOCC4F)nc4c(C(C)C)cnn34)c2)CC1` (single isomer, unassigned) [Compound 98, 4-acrylamido-N-(3-(((2-((3-fluorotetrahydro-2H-pyran-4-yl)oxy)-8-isopropylpyrazolo[1,5-a][1,3,5]triazin-4-yl)amino)methyl)phenyl)cyclohexane-1-carboxamide]?
Answer: inhibition at 10 µM: 88%; IC50: 300 to 1000 nM

Question: `C=CC(=O)N[C@H]1CC[C@@H](C(=O)Nc2cccc(CNc3nc(OC4CCOCC4F)nc4c(C(C)C)cnn34)c2)CC1` (single isomer, unassigned) [Compound 99, 4-acrylamido-N-(3-(((2-((3-fluorotetrahydro-2H-pyran-4-yl)oxy)-8-isopropylpyrazolo[1,5-a][1,3,5]triazin-4-yl)amino)methyl)phenyl)cyclohexane-1-carboxamide] was tested. Which “% inhibition @ 10 μM” value did it give?
Answer: 82%

Question: What about the IC50 of the same molecule?
Answer: > 1000 nM

Question: For `C=CC(=O)N[C@H]1CC[C@@H](C(=O)Nc2cccc(CNc3nc(NC4CCOCC4)nc4c(C(C)C)cnn34)c2)CC1` [Compound 7, (1,4-cis)-4-acrylamido-N-(3-(((8-isopropyl-2-((tetrahydro-2H-pyran-4-yl)amino)pyrazolo[1,5-a][1,3,5]triazin-4-yl)amino)methyl)phenyl)cyclohexane-1-carboxamide], which inhibition at 10 µM is on record?
Answer: 91%

Question: And the IC50?
Answer: > 1000 nM

Question: With `C=CC(=O)N[C@H]1CC[C@@H](C(=O)Nc2cccc(CNc3nc(N[C@H]4CC[C@H](O)CC4)nc4c(C(C)C)cnn34)c2)CC1` [Compound 9, (1,4-cis)-4-acrylamido-N-(3-(((2-(((1r,4r)-4-hydroxycyclohexyl)amino)-8-isopropylpyrazolo[1,5-a][1,3,5]triazin-4-yl)amino)methyl)phenyl)cyclohexane-1-carboxamide] as the molecule, how does the inhibition at 10 µM read?
Answer: 85%

Question: What about the IC50 of the same molecule?
Answer: > 1000 nM

Question: `C=CC(=O)N1CCCCC1C(=O)Nc1cccc(CNc2nc(N[C@H]3CCCOC3)nc3c(C(C)C)cnn23)c1` (stereo partly drawn) [Compound 16, 1-acryloyl-N-(3-(((8-isopropyl-2-(((S)-tetrahydro-2H-pyran-3-yl)amino)pyrazolo[1,5-a][1,3,5]triazin-4-yl)amino)methyl)phenyl)piperidine-2-carboxamide] was tested. Which IC50 did it give?
Answer: < 300 nM

Question: What does the source list for `CC(C)=CC(=O)N1CCC1C(=O)Nc1cccc(CNc2nc(NC3CCOCC3)nc3c(C(C)C)cnn23)c1` (stereo not shown) [Compound 17, N-(3-(((8-isopropyl-2-((tetrahydro-2H-pyran-4-yl)amino)pyrazolo[1,5-a][1,3,5]triazin-4-yl)amino)methyl)phenyl)-1-(3-methylbut-2-enoyl)azetidine-2-carboxamide]?
Answer: inhibition at 10 µM: 84%; IC50: > 1000 nM

Question: Which results are given for `C=CC(=O)N1CC[C@@H]1C(=O)Nc1cccc(CNc2nc(NC3CCOCC3)nc3c(C(C)C)cnn23)c1` [Compound 19, (R)-1-acryloyl-N-(3-(((8-isopropyl-2-((tetrahydro-2H-pyran-4-yl)amino)pyrazolo[1,5-a][1,3,5]triazin-4-yl)amino)methyl)phenyl)azetidine-2-carboxamide]?
Answer: inhibition at 10 µM: 100%; IC50: < 300 nM

Question: Which inhibition at 10 µM does the source give for `C=CC(=O)NC1CCCC(C(=O)Nc2cccc(CNc3nc(NC4CCOCC4)nc4c(C(C)C)cnn34)c2)C1` (stereo not shown) [Compound 22, 3-acrylamido-N-(3-(((8-isopropyl-2-((tetrahydro-2H-pyran-4-yl)amino)pyrazolo[1,5-a][1,3,5]triazin-4-yl)amino)methyl)phenyl)cyclohexane-1-carboxamide] here?
Answer: 98%

Question: And the IC50?
Answer: < 300 nM

Question: For `C=CC(=O)N1CCOC(C(=O)Nc2cccc(CNc3nc(NC4CCOCC4)nc4c(C(C)C)cnn34)c2)C1` (stereo not shown) [Compound 23, 4-acryloyl-N-(3-(((8-isopropyl-2-((tetrahydro-2H-pyran-4-yl)amino)pyrazolo[1,5-a][1,3,5]triazin-4-yl)amino)methyl)phenyl)morpholine-2-carboxamide], which inhibition at 10 µM is on record?
Answer: 98%

Question: And the IC50?
Answer: < 300 nM

Question: Which inhibition at 10 µM does the source give for `C#CC(=O)N1CCOCC1C(=O)Nc1cccc(CNc2nc(NC3CCOCC3)nc3c(C(C)C)cnn23)c1` (stereo not shown) [Compound 25, N-(3-(((8-isopropyl-2-((tetrahydro-2H-pyran-4-yl)amino)pyrazolo[1,5-a][1,3,5]triazin-4-yl)amino)methyl)phenyl)-4-propioloylmorpholine-3-carboxamide] here?
Answer: 99%

Question: What about the IC50 of the same molecule?
Answer: < 300 nM

Question: With `C=CC(=O)N1CCOCC1C(=O)Nc1ccc(CC)c(CNc2nc(NC3CCOCC3)nc3c(C(C)C)cnn23)c1` (stereo not shown) [Compound 26, 4-acryloyl-N-(4-ethyl-3-(((8-isopropyl-2-((tetrahydro-2H-pyran-4-yl)amino)pyrazolo[1,5-a][1,3,5]triazin-4-yl)amino)methyl)phenyl)morpholine-3-carboxamide] as the molecule, how does the inhibition at 10 µM read?
Answer: 95%

Question: And the IC50?
Answer: 300 to 1000 nM

Question: Which inhibition at 10 µM does the source give for `C=CC(=O)N1CCC1C(=O)Nc1ccc(C)c(CNc2nc(NC3CCOCC3)nc3c(C(C)C)cnn23)c1` (stereo not shown) [Compound 27, 1-acryloyl-N-(3-(((8-isopropyl-2-((tetrahydro-2H-pyran-4-yl)amino)pyrazolo[1,5-a][1,3,5]triazin-4-yl)amino)methyl)-4-methylphenyl)azetidine-2-carboxamide] here?
Answer: 100%

Question: What about the IC50 of the same molecule?
Answer: < 300 nM

Question: With `C=CC(=O)N1CCC1C(=O)Nc1cc(CNc2nc(NC3CCOCC3)nc3c(C(C)C)cnn23)ccc1C` (stereo not shown) [Compound 28, 1-acryloyl-N-(5-(((8-isopropyl-2-((tetrahydro-2H-pyran-4-yl)amino)pyrazolo[1,5-a][1,3,5]triazin-4-yl)amino)methyl)-2-methylphenyl)azetidine-2-carboxamide] as the molecule, how does the inhibition at 10 µM read?
Answer: 99%

Question: And the IC50?
Answer: < 300 nM

Question: How did the inhibition at 10 µM turn out when `C=CC(=O)N1CCC1C(=O)Nc1ccc(F)c(CNc2nc(NC3CCOCC3)nc3c(C(C)C)cnn23)c1` (stereo not shown) [Compound 29, 1-acryloyl-N-(4-fluoro-3-(((8-isopropyl-2-((tetrahydro-2H-pyran-4-yl)amino)pyrazolo[1,5-a][1,3,5]triazin-4-yl)amino)methyl)phenyl)azetidine-2-carboxamide] was run?
Answer: 98%

Question: What about the IC50 of the same molecule?
Answer: < 300 nM

Question: What does the source list for `C=CC(=O)N1CCC1C(=O)Nc1cccc(CNc2nc(NC3CCOCC3)nc3c(C(C)C)cnn23)c1F` (stereo not shown) [Compound 30, 1-acryloyl-N-(2-fluoro-3-(((8-isopropyl-2-((tetrahydro-2H-pyran-4-yl)amino)pyrazolo[1,5-a][1,3,5]triazin-4-yl)amino)methyl)phenyl)azetidine-2-carboxamide]?
Answer: inhibition at 10 µM: 98%; IC50: < 300 nM

Question: `C=CC(=O)N1CCC1C(=O)Nc1cc(F)cc(CNc2nc(NC3CCOCC3)nc3c(C(C)C)cnn23)c1` (stereo not shown) [Compound 31, 1-acryloyl-N-(3-fluoro-5-(((8-isopropyl-2-((tetrahydro-2H-pyran-4-yl)amino)pyrazolo[1,5-a][1,3,5]triazin-4-yl)amino)methyl)phenyl)azetidine-2-carboxamide] was tested. Which inhibition at 10 µM did it give?
Answer: 100%

Question: And the IC50?
Answer: < 300 nM

Question: Which results are given for `C=CC(=O)N1CCC(C(=O)Nc2cc(F)cc(CNc3nc(NC4CCOCC4)nc4c(C(C)C)cnn34)c2)C1` (stereo not shown) [Compound 33, 1-acryloyl-N-(3-fluoro-5-(((8-isopropyl-2-((tetrahydro-2H-pyran-4-yl)amino)pyrazolo[1,5-a][1,3,5]triazin-4-yl)amino)methyl)phenyl)pyrrolidine-3-carboxamide]?
Answer: inhibition at 10 µM: 86%; IC50: 300 to 1000 nM

Question: With `C=CC(=O)N1CCCCC1C(=O)Nc1ccc(C)c(CNc2nc(NC3CCOCC3)nc3c(C(C)C)cnn23)c1` (stereo not shown) [Compound 34, 1-acryloyl-N-(3-(((8-isopropyl-2-((tetrahydro-2H-pyran-4-yl)amino)pyrazolo[1,5-a][1,3,5]triazin-4-yl)amino)methyl)-4-methylphenyl)piperidine-2-carboxamide] as the molecule, how does the inhibition at 10 µM read?
Answer: 73%

Question: And the IC50?
Answer: > 1000 nM

Question: What does the source list for `C=CC(=O)N1CCCCC1C(=O)Nc1cccc(CNc2nc(NC3CCOCC3)nc3c(C(C)C)cnn23)c1F` (stereo not shown) [Compound 35, 1-acryloyl-N-(2-fluoro-3-(((8-isopropyl-2-((tetrahydro-2H-pyran-4-yl)amino)pyrazolo[1,5-a][1,3,5]triazin-4-yl)amino)methyl)phenyl)piperidine-2-carboxamide]?
Answer: inhibition at 10 µM: 99%; IC50: < 300 nM
